Results published in patent US12486253B2, “Therapeutics for the degradation of mutant BRAF” (C4 THERAPEUTICS, INC., priority 2021, dated 2025).

Columns and labels:
[1] = molecular target: T1, SALL4 (Homo sapiens, UniProt Q9UJQ4); assay: SALL4 protein levels after treatment; assay type: cell-based; settings: various concentrations
T1 construct: endogenously expressing SALL4 with HiBiT fusion tag via CRISPR; endogenous in cells; host or cells: KELLY.2 (from KELLY, DSMZ ACC-No. 355)

[2] = molecular target: WT BRAF (Homo sapiens, UniProt P15056); assay: Western blot of WT BRAF and pERK levels in HCT-116 cells; assay type: cell-based; settings: HCT-116 cells with endogenous WT BRAF
Chain of WT BRAF (P15056 whole entry, canonical isoform): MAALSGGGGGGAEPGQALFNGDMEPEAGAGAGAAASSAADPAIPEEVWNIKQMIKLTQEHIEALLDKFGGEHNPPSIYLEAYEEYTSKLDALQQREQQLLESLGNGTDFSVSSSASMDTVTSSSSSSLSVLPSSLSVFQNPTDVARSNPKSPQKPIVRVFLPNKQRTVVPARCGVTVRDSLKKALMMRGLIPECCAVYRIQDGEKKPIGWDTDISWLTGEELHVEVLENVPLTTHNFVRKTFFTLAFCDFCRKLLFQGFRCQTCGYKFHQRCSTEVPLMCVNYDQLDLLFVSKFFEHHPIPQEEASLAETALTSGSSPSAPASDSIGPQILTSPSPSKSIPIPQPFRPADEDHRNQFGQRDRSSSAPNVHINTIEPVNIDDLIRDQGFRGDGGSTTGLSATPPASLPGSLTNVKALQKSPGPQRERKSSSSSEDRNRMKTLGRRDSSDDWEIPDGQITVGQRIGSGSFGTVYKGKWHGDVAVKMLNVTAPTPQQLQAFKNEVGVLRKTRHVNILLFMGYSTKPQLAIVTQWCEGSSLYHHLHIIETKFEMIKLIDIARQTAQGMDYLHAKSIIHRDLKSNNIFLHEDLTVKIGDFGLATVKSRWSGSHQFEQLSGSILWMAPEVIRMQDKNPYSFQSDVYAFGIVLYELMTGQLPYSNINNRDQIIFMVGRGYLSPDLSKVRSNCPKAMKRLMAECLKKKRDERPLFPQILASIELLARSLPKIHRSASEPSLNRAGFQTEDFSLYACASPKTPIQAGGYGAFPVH

[3] = molecular target: T2, p61 splice variant (Homo sapiens, UniProt P15056+Q96SW2, DEL169-380/V600E); assay: Western blot of engineered HEK-293T cells expressing the p61 splice variant; assay type: cell-based; settings: lentivirus expression
T2 construct: host or cells: HEK-293T, lentiviral expression
T2 sequence (P15056 with tags, fused parts or gaps DEL169-380/V600E): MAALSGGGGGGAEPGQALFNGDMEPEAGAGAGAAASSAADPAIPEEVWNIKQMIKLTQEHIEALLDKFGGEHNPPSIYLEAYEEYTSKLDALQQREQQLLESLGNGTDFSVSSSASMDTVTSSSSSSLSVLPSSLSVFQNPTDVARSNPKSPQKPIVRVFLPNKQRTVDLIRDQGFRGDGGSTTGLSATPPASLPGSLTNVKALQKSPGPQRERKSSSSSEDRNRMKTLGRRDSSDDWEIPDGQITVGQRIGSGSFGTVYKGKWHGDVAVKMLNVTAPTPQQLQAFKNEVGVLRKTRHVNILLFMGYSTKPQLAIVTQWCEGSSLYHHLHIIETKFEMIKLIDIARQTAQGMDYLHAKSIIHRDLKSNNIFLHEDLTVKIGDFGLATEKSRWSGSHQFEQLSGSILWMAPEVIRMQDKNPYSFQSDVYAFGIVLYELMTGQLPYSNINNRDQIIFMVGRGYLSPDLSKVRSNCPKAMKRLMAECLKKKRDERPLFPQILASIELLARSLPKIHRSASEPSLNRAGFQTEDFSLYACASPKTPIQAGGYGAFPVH
T2 sequence (Q96SW2 whole entry, stated change not applied, canonical isoform): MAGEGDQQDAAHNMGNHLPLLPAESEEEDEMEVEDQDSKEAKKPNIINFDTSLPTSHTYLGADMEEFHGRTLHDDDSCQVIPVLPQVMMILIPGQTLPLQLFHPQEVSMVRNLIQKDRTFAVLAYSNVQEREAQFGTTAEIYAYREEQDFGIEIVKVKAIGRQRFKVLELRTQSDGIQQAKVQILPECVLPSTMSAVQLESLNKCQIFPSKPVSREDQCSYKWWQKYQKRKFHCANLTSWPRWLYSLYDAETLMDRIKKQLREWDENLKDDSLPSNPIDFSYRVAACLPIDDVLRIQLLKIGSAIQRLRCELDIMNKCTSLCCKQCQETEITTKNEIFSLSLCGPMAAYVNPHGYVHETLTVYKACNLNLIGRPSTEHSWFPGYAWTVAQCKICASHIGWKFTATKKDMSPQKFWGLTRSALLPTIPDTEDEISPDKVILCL
T2 sequence (Q16531 whole entry partner, canonical isoform): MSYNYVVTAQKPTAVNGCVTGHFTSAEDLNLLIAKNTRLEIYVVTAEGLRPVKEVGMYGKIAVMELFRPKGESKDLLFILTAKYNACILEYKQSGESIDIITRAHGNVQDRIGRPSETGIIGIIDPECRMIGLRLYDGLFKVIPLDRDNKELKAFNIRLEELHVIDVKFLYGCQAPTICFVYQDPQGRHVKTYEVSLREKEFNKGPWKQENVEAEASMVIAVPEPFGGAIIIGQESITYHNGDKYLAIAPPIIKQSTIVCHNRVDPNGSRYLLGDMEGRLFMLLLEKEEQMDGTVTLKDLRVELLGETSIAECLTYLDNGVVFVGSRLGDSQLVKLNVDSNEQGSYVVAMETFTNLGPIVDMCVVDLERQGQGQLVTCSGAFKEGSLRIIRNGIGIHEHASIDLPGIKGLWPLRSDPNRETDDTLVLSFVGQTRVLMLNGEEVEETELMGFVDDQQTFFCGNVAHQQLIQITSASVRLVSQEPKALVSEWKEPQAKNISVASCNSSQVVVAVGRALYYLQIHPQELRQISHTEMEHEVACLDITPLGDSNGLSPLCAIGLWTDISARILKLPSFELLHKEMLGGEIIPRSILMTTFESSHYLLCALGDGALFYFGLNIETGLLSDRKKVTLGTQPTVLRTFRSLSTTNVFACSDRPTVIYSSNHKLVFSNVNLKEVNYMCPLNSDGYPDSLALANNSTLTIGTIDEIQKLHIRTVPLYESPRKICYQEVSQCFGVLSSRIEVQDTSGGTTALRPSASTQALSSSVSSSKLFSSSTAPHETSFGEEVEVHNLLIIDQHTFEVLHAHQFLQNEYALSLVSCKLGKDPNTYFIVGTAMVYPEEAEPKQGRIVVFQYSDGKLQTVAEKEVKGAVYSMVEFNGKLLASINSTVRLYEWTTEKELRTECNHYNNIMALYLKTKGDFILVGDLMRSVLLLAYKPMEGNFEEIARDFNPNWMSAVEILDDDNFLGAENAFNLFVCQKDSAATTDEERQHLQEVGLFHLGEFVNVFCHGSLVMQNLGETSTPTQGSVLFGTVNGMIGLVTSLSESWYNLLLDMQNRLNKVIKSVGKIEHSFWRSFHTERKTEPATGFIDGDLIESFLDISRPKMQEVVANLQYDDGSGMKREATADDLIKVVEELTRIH

[4] = test system: A375 cells; assay: CellTiter-Glo cell growth inhibition, A375 cells; assay type: cell-based; settings: Homo sapiens, A-375, 72 hr, mean of at least n = 3
Method: A375 cell viability was determined based on quantification of ATP using CellTiter-Glo® 2.0 luminescent Assay kit, which signals the presence of metabolically-active cells. Briefly, test compound was added to 384-well plates at a top concentration of 10 μM with 14 points, half log titration in duplicates. A375 cells were seeded into the 384-well plates in DMEM medium containing 10% FBS at a cell density of 250 cells per well. Cells treated in the absence of the test compound were the negative control, normalized to 100% viability, and cells treated in the absence of CellTiter-Glo® 2.0 were the positive control, normalized to 0% viability. A375 cells were incubated at 37° C. with 5% CO2 for 72 hr. CellTiter-Glo reagent was then added to the cells and Luminescence was acquired on EnVision™ Multilabel Reader (PerkinElmer, Santa Clara, CA, USA).

[5] = test system: LOXL4; assay: Global proteomics profiling, A375 cells; assay type: cell-based, human; settings: 300 nM, 24 hours
Method: Each cell line was treated in duplicate with either DMSO or Compound 157 (final concentration 300 nM) for 24 hours in an incubator at 37° C. with 5% CO2. After the 24-hour incubation, cells were harvested, washed twice with PBS, and snap frozen in liquid nitrogen. Samples were re-suspended in lysis buffer [8 M urea, 50 mM HEPES (pH 8.5), 50 mM NaCl, 1× protease inhibitor cocktail] and lysed by sonication at 4° C. with 85% amplitude in a pulse setting with 30 seconds on and 30 seconds off for a total sonication time of 5 minutes. Lysates were centrifuged at maximum speed for 10 minutes at 4° C. and the supernatant collected, reduced for 1 hour at room temperature with 5 mM TCEP, and the cysteine residues were then alkylated with 15 mM iodoacetamide (room temperature, in dark, 30 minutes). Protein content was extracted by methanol-chloroform precipitation and subsequent ice-cold acetone washes. Protein pellets were resuspended in 8 M urea, 50 mM HEPES (pH 8.5) buffer and protein concentrations were measured by BCA assay. […]
For peptide tandem mass tag (TMT) labeling, 100 μg of peptides per sample was prepared at […] concentration in 200 mM HEPES (pH 8.5), 30% acetonitrile (ACN) and each the specific TMT reagent. […] TMT reporter ion intensities were quantified by extracting the signal-to-noise ratio for each. […]

[6] = test system: A375 tumors; assay: In vivo efficacy in A375 xenograft tumors; parameters: species or system BALB/c nude mice; settings: mice
Method: The efficacy study was conducted in female BALB/c nude mice bearing A375 tumors. Female BALB/c nude mice were inoculated subcutaneously in the right flank with A375 tumor cells (5×10^6) in 0.2 mL of PBS supplemented with Matrigel (at a 1:1 ratio) for tumor development. Tumor volume was measured twice weekly in two dimensions using calipers, and volume (mm^3) was calculated using the formula: V=0.5 a×b^2 where a and b are the long and short diameters of the tumor in mm, respectively. Once the tumors reached an average tumor volume of 246 mm^3 (16 days after implantation), the animals were divided randomly into groups of 6, stratified to result in about equal average tumor sizes in each treatment group and treatment began on Day 0.
All agents were administered to mice bearing A375 tumors orally (PO), daily (QD; encorafenib), twice a day (BID) or three times a day (TID) for Compound 157, for 21 or 35 days. encorafenib was dosed at 35 mg/kg and Compound 157 at 0.1, 0.3, 1, 3 or 10 mg/kg twice a day or 2 mg/kg three times a day. Compound 157 was formulated in 20% PEG400+80% (25% SBECD). Body weight and MTV were measured on a 2× weekly schedule and reported as Mean±SEM.

T1 sequence (Q9UJQ4 whole entry, the tested form may be a part): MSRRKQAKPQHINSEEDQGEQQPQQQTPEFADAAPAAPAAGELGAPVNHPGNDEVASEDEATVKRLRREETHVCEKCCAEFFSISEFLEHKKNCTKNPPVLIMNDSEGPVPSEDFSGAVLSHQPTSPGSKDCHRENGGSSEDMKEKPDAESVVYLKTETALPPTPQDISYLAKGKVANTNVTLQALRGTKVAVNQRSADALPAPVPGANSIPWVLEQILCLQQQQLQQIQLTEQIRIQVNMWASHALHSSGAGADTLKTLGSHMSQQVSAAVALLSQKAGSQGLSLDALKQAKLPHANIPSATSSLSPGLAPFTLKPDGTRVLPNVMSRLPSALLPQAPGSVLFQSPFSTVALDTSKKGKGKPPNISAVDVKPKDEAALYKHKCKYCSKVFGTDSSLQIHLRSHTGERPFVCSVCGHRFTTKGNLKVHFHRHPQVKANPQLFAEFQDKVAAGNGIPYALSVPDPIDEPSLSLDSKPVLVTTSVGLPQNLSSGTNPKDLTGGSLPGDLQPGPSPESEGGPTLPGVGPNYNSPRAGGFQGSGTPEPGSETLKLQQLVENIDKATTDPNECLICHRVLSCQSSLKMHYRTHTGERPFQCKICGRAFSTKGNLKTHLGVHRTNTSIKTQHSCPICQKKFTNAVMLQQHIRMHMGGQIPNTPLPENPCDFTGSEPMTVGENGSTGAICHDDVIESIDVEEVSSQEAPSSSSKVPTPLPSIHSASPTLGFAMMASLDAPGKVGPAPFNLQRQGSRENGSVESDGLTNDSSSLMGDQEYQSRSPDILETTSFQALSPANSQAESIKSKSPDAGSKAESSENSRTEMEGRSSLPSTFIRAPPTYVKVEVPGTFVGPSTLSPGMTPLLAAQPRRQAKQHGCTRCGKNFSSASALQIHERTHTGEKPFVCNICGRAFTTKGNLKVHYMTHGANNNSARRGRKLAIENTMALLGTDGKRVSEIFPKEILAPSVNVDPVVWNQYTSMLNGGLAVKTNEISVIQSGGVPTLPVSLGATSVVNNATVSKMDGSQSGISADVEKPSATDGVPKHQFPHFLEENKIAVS

SMILES: CCN(C)S(=O)(=O)Nc1ccc(F)c(Oc2ccc3ncn([C@H]4COC5(CCN(C(=O)CC6(O)CCN(c7cc8c(cc7F)c(N7CCC(=O)NC7=O)nn8C)CC6)CC5)C4)c(=O)c3c2)c1C#N [Compound 157, (3R)-3-[6-[2-cyano-3-[[ethyl(methyl)sulfamoyl]amino]-6-fluorophenoxy]-4-oxoquinazolin-3-yl]-8-[2-[1-[3-(2,4-dioxo-1,3-diazinan-1-yl)-5-fluoro-1-methylindazol-6-yl]-4-hydroxypiperidin-4-yl]acetyl]-1-oxa-8-azaspiro[4.5]decane]
- SALL4 protein levels [1]: steady
- WT BRAF levels and phosphorylation of ERK [2]: minimal impact
- degradation of p61 splice variant [3]: capable of degrading
- GI50 [4]: 9.3 nM
- LOXL4 protein level change [5]: decreased
- Tumor growth compared to vehicle-treated tumors ([6]; 1 mg/kg PO BID): potent tumor growth inhibition
- Tumor growth compared to vehicle-treated tumors ([6]; 2 mg/kg PO TID): potent tumor growth inhibition
- Tumor growth compared to vehicle-treated tumors ([6]; 3 mg/kg PO BID): potent tumor growth inhibition
- Tumor growth compared to vehicle-treated tumors ([6]; 10 mg/kg PO BID): robust tumor growth regression
